Our source for the CC50 values is publication PMC6792352, “Limited Chemical Structural Diversity Found to Modulate Thyroid Hormone Receptor in the Tox21 Chemical Library” (Environmental Health Perspectives, 2019).

Where a name gives a salt, the structure may show the parent alone.

Usually CC50 stands for the concentration giving 50% cytotoxicity.

A short description of the first data set: in vitro. Particulars: rat, gh3-tre-luc cells, AC50 (uM) modified / 1000.
For the compound `Cc1cc(C2CC2)nc(Nc2ccccc2)n1` [Cyprodinil], half-maximal cytotoxicity (CC50 at 24 h) was put at 74.9 µM.

On to `CN1CCC(=C2c3ccccc3C=Cc3ccccc32)CC1` [Cyproheptadine], for which the CC50 at 24 h came to 12.2 µM. Still for that read-out and setting: next, `O=C(Nc1ccc(Cl)c(Cl)c1)C1CC1` [Cypromid]: over 50 µM; `CC(=O)O[C@]1(C(C)=O)CC[C@H]2[C@@H]3C=C(Cl)C4=CC(=O)[C@@H]5C[C@@H]5[C@]4(C)[C@H]3CC[C@@]21C` [Cyproterone acetate]: 66.8 µM; `CC(=O)[C@@]1(O)CC[C@H]2[C@@H]3C=C(Cl)C4=CC(=O)[C@@H]5C[C@@H]5[C@]4(C)[C@H]3CC[C@@]21C` [Cyproterone]: over 50 µM. In the case of `Nc1nc(N)nc(NC2CC2)n1` [Cyromazine], the CC50 at 24 h was over 90 µM. With `NCCS` [Cysteamine hydrochloride], the CC50 at 24 h is over 50 µM. For `COc1ccc(C(=O)/C(Br)=C\C(=O)O)cc1` [Cytembena], half-maximal cytotoxicity (CC50 at 24 h) was put at 44 µM. Turning to `Nc1cc[nH]c(=O)n1` [Cytosine], the CC50 at 24 h was over 90 µM. `O=C1c2ccccc2C(=O)C1c1ccc2ccccc2n1` [D & C Yellow 11] had a CC50 at 24 h of over 50 µM.

Compound `Cc1ccc(N=Nc2c(O)c(C(=O)O)cc3ccccc23)c(S(=O)(=O)O)c1` [D&C Red No. 7] returned a CC50 at 24 h of 27.6 µM. Compound `Cc1ccc(Nc2ccc(O)c3c2C(=O)c2ccccc2C3=O)cc1` [D&C Violet 2] yielded a CC50 at 24 h of over 90 µM. Turning to `O=C(O)[C@H](O)c1ccccc1` [D-(-)-Mandelic acid], the half-maximal cytotoxic concentration (CC50) at 24 h was over 50 µM. On the same count and under the same terms, the result for `C[C@@H](N)C(=O)O` [D-Alanine] reads over 50 µM; that for `[2H]C([2H])([2H])[C@H](N)Cc1ccccc1` [D-Amphetamine-d3 hemisulfate], over 50 µM; that for `OC[C@@H](O)C(O)[C@H](O)CO` [D-Arabinitol], over 50 µM. In the case of `NC(=O)C[C@@H](N)C(=O)O` [D-Asparagine hydrate], the CC50 at 24 h was over 50 µM. As for `N[C@H](CC(=O)O)C(=O)O` [D-Aspartic acid], the CC50 at 24 h was over 50 µM. As for `CC1(C)[C@@H]2CC[C@@]1(C)C(=O)C2` [D-Camphor], the CC50 at 24 h was over 90 µM. Turning to `O=C(COP(=O)(O)O)[C@@H](O)[C@H](O)[C@H](O)COP(=O)(O)O` [D-Fructose 1,6-bisphosphate trisodium], the CC50 at 24 h is over 50 µM. `OCC1(O)OC[C@@H](O)[C@@H](O)[C@@H]1O` (stereo partly drawn) [D-Fructose]: the CC50 at 24 h was over 50 µM. On the same count and under the same terms, next, `OC[C@@H](O)[C@H](O)[C@H](O)[C@@H](O)CO` [D-Galactitol]: over 50 µM; `OC[C@@H](O)[C@@H](O)[C@H](O)[C@@H](O)CO` [D-Glucitol]: over 90 µM. For the compound `O=C(O)C(O)[C@H](O)[C@@H](O)[C@H](O)[C@H](O)CO` (stereo partly drawn) [D-Gluco-heptonic acid, monosodium salt], the CC50 at 24 h is over 90 µM. Compound `OC[C@H]1OC(O)[C@H](O)[C@@H](O)[C@@H]1O` (stereo partly drawn) [D-Glucose] gave a 50% cytotoxic concentration (CC50) at 24 h of over 90 µM.

`O=C[C@H](O)[C@H]1OC(=O)[C@@H](O)[C@H]1O` [D-Glucuronolactone]: the CC50 at 24 h is over 90 µM. Take `N[C@H](CCC(=O)O)C(=O)O` [D-Glutamic acid]: the CC50 at 24 h is over 50 µM.

The compound `NC(=O)CC[C@@H](N)C(=O)O` [D-Glutamine] yielded a CC50 at 24 h of over 50 µM.

`CC[C@@H](C)[C@@H](N)C(=O)O` [D-Isoleucine] displayed a CC50 at 24 h of over 50 µM. The compound `C[C@@H](O)C(=O)O` [D-Lactic acid] showed a CC50 at 24 h of over 100 µM. Turning to `OC[C@@H](O)[C@@H](O[C@@H]1O[C@H](CO)[C@H](O)[C@H](O)[C@H]1O)[C@H](O)[C@@H](O)CO` [D-Lactitol monohydrate], the cytotoxic concentration (CC50) at 24 h was over 90 µM. Regarding `CC(C)C[C@@H](N)C(=O)O` [D-Leucine], the CC50 at 24 h is over 50 µM. `C=C(C)[C@H]1CC=C(C)CC1` [D-Limonene] had a CC50 at 24 h of over 90 µM. Same read-out and setting: next, `OC[C@@H](O)[C@@H](O)[C@H](O)[C@H](O)CO` [D-Mannitol]: over 90 µM; `CN1CCC[C@@H]1c1cccnc1` [D-Nicotine]: over 50 µM. `CC(C)(S)[C@@H](N)C(=O)O` [D-Penicillamine] had a CC50 at 24 h of over 50 µM. The compound `N[C@H](CO)C(=O)O` [D-Serine] showed a CC50 at 24 h of over 50 µM. Consider `O=C(CO)[C@@H](O)[C@@H](O)[C@H](O)CO` [D-Tagatose], for which the CC50 at 24 h was over 50 µM. As to `CC(C)[C@@H](N)C(=O)O` [D-Valine], the CC50 at 24 h was over 50 µM. `OC1OC[C@@H](O)[C@H](O)[C@H]1O` (stereo partly drawn) [D-Xylose]: the CC50 at 24 h was over 90 µM. With `Cc1cc(O)cc2c1O[C@](C)(CCC[C@H](C)CCC[C@H](C)CCCC(C)C)CC2` [D-delta-Tocopherol], the half-maximal cytotoxic concentration (CC50) at 24 h is over 50 µM. `CCN(CC)C(=O)c1cccc(C)c1` [DEET] had a CC50 at 24 h of over 90 µM. Compound `CN(C)/N=N/c1[nH]cnc1C(N)=O` [Dacarbazine] had a half-maximal cytotoxic concentration (CC50) at 24 h of over 90 µM. `O=c1c(-c2ccc(O)cc2)coc2cc(O)ccc12` [Daidzein]: the CC50 at 24 h is over 90 µM. With `CCNC(=O)NCCCOc1cccc(CN2CCCCC2)c1` [Dalcotidine], the CC50 at 24 h is over 50 µM. Regarding `O=C(O)Cc1ccc(CCNS(=O)(=O)c2ccc(Cl)cc2)cc1` [Daltroban], the CC50 at 24 h is over 50 µM. Consider `C#C[C@]1(O)CC[C@H]2[C@@H]3CCC4=Cc5oncc5C[C@]4(C)[C@H]3CC[C@@]21C` [Danazol], for which it took 57.4 µM to reach half-maximal cytotoxicity (CC50 at 24 h).

Turning to `CN1C[C@@H]2C[C@H]1CN2c1cc2c(cc1F)c(=O)c(C(=O)O)cn2C1CC1` [Danofloxacin], the CC50 at 24 h was over 50 µM. `O=C1c2cccc(O)c2C(=O)c2c(O)cccc21` [Danthron] registered a CC50 at 24 h of over 90 µM.

`Cc1ccccc1N1CCN(CCc2nnc3n2CCCC3)CC1` [Dapiprazole hydrochloride] showed a CC50 at 24 h of over 50 µM. `Nc1ccc(S(=O)(=O)c2ccc(N)cc2)cc1` [Dapsone] gave a CC50 at 24 h of over 50 µM. In the case of `CC(C)(C)c1cc(/C=C2\SC(N)=NC2=O)cc(C(C)(C)C)c1O` [Darbufelone mesylate], the CC50 at 24 h turned out to be 23.6 µM. The compound `NC(=O)C(c1ccccc1)(c1ccccc1)[C@@H]1CCN(CCc2ccc3c(c2)CCO3)C1` [Darifenacin hydrobromide] came in with a CC50 at 24 h of 14.7 µM.

Take `CC(C)CN(C[C@@H](O)[C@H](Cc1ccccc1)NC(=O)O[C@H]1CO[C@H]2OCC[C@H]21)S(=O)(=O)c1ccc(N)cc1` [Darunavir]: the CC50 at 24 h was over 50 µM. In turn, `Cc1nc(Nc2ncc(C(=O)Nc3c(C)cccc3Cl)s2)cc(N2CCN(CCO)CC2)n1` [Dasatinib] gave a CC50 at 24 h of 15.8 µM.

Regarding `COc1cccc2c1C(=O)c1c(O)c3c(c(O)c1C2=O)C[C@@](O)(C(C)=O)C[C@@H]3O[C@H]1C[C@H](N)[C@H](O)[C@H](C)O1` [Daunomycin hydrochloride], it took 0.244 µM to reach half-maximal cytotoxicity (CC50 at 24 h).

In turn, `Cc1c(Cn2ccnc2)c2ccccc2n1CCC(=O)O` [Dazmegrel] gave a CC50 at 24 h of over 50 µM. `O=C(O)c1ccc(OCCn2ccnc2)cc1` [Dazoxiben] registered a CC50 at 24 h of over 50 µM. In turn, `N=C(N)N1CCc2ccccc2C1` [Debrisoquin sulfate] displayed a half-maximal cytotoxic concentration (CC50) at 24 h of over 50 µM.

For the compound `C1CCC2CCCCC2C1` (stereo not shown) [Decalin], the CC50 at 24 h is over 90 µM. Compound `C[N+](C)(C)CCCCCCCCCC[N+](C)(C)C` [Decamethonium bromide] registered a cytotoxic concentration (CC50) at 24 h of over 50 µM.

Consider `C[Si]1(C)O[Si](C)(C)O[Si](C)(C)O[Si](C)(C)O[Si](C)(C)O1` [Decamethylcyclopentasiloxane], for which the CC50 at 24 h was over 90 µM. `CCCCCCCCCC=O` [Decanal] gave a CC50 at 24 h of over 90 µM. `CCCCCCCCCC` [Decane] showed a CC50 at 24 h of over 90 µM. `O=C(O)CCCCCCCCC(=O)O` [Decanedioic acid]: the CC50 at 24 h was over 90 µM. `CCCCCCCCCC#N` [Decanenitrile]: the CC50 at 24 h is over 90 µM. Regarding `CCCCCCCCCC(=O)NO` [Decanohydroxamic acid], the CC50 at 24 h is over 50 µM. Regarding `CCCCCCCCCC(=O)O` [Decanoic acid], the CC50 at 24 h was over 50 µM. The same measure, in the same setting: the result for `Nc1ncn([C@H]2C[C@H](O)[C@@H](CO)O2)c(=O)n1` [Decitabine] reads over 50 µM.

As to `CCCCCCCCCCOCC(O)CN` (stereo not shown) [Decominol hydrochloride], the half-maximal cytotoxic concentration (CC50) at 24 h amounted to 6.25 µM. `CCCCCCCCCCOc1cc2c(O)c(C(=O)OCC)cnc2cc1OCC` [Decoquinate] yielded a cytotoxic concentration (CC50) at 24 h of over 50 µM. Compound `CCCCCCCCCCOC(C)=O` [Decyl acetate] had a CC50 at 24 h of over 90 µM.

`CCCCCCCCCCO[C@@H]1O[C@H](CO)[C@@H](O)[C@H](O)[C@H]1O` [Decyl beta-D-glucopyranoside] yielded a CC50 at 24 h of over 90 µM. Compound `C=C(C)C(=O)OCCCCCCCCCC` [Decyl methacrylate] gave a CC50 at 24 h of over 90 µM. The compound `C=CC(=O)OCCCCCCCCCC` [Decyl prop-2-enoate] had a CC50 at 24 h of over 90 µM.

The compound `CC(C)Nc1nc(N)nc(Cl)n1` [Deethylatrazine] gave a CC50 at 24 h of over 90 µM.

Staying with this data set, now noted: rat, gh3-tre-luc cells, AC50 (uM) modified / 1000, Tox21_110001=Tox21_113080; viability, 1 nM T3 present, 24 h.
Compound `COP(=S)(OC)Oc1ccc(S(N)(=O)=O)cc1` [Cythioate] returned a CC50 at 24 h of over 50 µM.

Staying with this data set, now noted: rat, gh3-tre-luc cells, AC50 (uM) modified / 1000, Tox21_110001=Tox21_201112; viability, 1 nM T3 present, 24 h.
Consider `CC(Cl)(Cl)C(=O)O` [Dalapon-sodium], for which the CC50 at 24 h is over 90 µM.

The same data set, now with this note: rat, gh3-tre-luc cells, AC50 (uM) modified / 1000, Tox21_110001=Tox21_201236; viability, 1 nM T3 present, 24 h.
Take `CN1CSC(=S)N(C)C1` [Dazomet]: the midpoint of cytotoxicity, the CC50 at 24 h, lay at 5.54 µM.

The same data set, now with this note: rat, gh3-tre-luc cells, AC50 (uM) modified / 1000, Tox21_110001=Tox21_202199; viability, 1 nM T3 present, 24 h.
With `CN(C)NC(=O)CCC(=O)O` [Daminozide], the CC50 at 24 h is over 90 µM.

Staying with this data set, now noted: rat, gh3-tre-luc cells, AC50 (uM) modified / 1000, Tox21_110001=Tox21_300990; viability, 1 nM T3 present, 24 h.
For the compound `CN1CSC(=S)N(C)C1` [Dazomet], half-maximal cytotoxicity (CC50 at 24 h) was put at 34.4 µM.

The same data set, now with this note: rat, gh3-tre-luc cells, AC50 (uM) modified / 1000, Tox21_110001=Tox21_302231; viability, 1 nM T3 present, 24 h.
In turn, `O=c1c2ccccc2c(=O)c2c1cc(Cl)c1[nH]c3c([nH]c12)c(Cl)cc1c(=O)c2ccccc2c(=O)c13` [D&C Blue No. 9] yielded a CC50 at 24 h of over 90 µM.
